Data reported in patent US8722712B2, “Substituted aryl 1 ,2,4-oxadiazoles derivatives as sphingosine-1 phosphate receptors modulators” (Allergan, Inc., priority 2012, dated 2014).

The compounds below were run against T1, human S1P1 receptor (Homo sapiens, UniProt P21453) (assay: GTP γ35S binding assay for S1P1 activity). Conditions: membranes of cells stably expressing the S1P1 receptor, test compounds 0.08 to 5,000 nM.
T1 construct: expressed in transfected cells; membranes used
T1 sequence (P21453 whole entry): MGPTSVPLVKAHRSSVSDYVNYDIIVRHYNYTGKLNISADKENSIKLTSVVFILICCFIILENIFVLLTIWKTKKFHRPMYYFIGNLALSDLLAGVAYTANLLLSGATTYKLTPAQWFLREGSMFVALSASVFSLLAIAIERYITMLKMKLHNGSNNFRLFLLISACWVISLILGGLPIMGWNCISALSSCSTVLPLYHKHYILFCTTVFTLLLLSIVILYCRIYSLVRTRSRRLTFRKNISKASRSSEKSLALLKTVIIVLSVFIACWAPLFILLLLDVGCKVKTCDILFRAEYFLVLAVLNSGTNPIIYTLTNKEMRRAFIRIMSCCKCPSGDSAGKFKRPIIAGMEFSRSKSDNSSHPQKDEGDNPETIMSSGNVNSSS
Format: biochemical
Method: Compounds were synthesized and tested for S1P1 activity using the GTP γ^355 binding assay. These compounds may be assessed for their ability to activate or block activation of the human S1P1 receptor in cells stably expressing the S1P1 receptor.
[…] binding was measured in the medium containing (mM) HEPES 25, pH 7.4, MgCl2 10, NaCl 100, dithitothreitol 0.5, digitonin 0.003%, 0.2 nM GTP γ^35S, and 5 μg membrane protein in a volume of 150 μl. Test compounds were included in the concentration range from 0.08 to 5,000 nM unless indicated otherwise. Membranes were incubated with 100 μM 5′-adenylylimmidodiphosphate for 30 min, and subsequently with 10 μM GDP for 10 min on ice. Drug solutions and membrane were mixed, and then reactions were initiated by adding GTP γ^35S and continued for 30 min at 25° C. Reaction mixtures were filtered over Whatman GF/B filters under vacuum, and washed three times with 3 mL of ice-cold buffer (HEPES 25, pH7.4, MgCl2 10 and NaCl-100). Filters were dried and mixed with scintillant, and counted for ^35S activity using a […]. Agonist-induced GTP γ^35S binding was obtained by subtracting that in the absence of agonist. Binding data were analyzed using a non-linear regression method. In case of antagonist assay, the reaction mixture contained 10 nM […] in the presence of test antagonist at concentrations ranging from 0.08 to 5000 nM.
With `CCc1cc(-c2noc(CCCCc3ccccc3)n2)ccc1CNCCCP(=O)(O)O` [Compound 1, [3-({2-Ethyl-4-[5-(4-phenylbutyl)-1,2,4-oxadiazol-3-yl]benzyl}amino)propyl]phosphonic acid] the EC50 was 79.2 nM.
`O=P(O)(O)CCCNCc1ccc(-c2noc(CCCCc3ccccc3)n2)c(Br)c1` [Compound 3, [3-({3-Bromo-4-[5-(4-phenylbutyl)-1,2,4-oxadiazol-3-yl]benzyl}amino)propyl]phosphonic acid] showed an EC50 of 16.9 nM.
`O=P(O)(O)CCCNCc1ccc(-c2noc(CCCCc3ccccc3)n2)c(F)c1` [Compound 2, [3-({3-Fluoro-4-[5-(4-phenylbutyl)-1,2,4-oxadiazol-3-yl]benzyl}amino)propyl]phosphonic acid] showed an EC50 of 23.8 nM.
`O=P(O)(O)CCCNCc1ccc(-c2noc(CCCCc3ccccc3)n2)c(-c2ccco2)c1` [Compound 7, [3-({3-(2-Furyl)-4-[5-(4-phenylbutyl)1,2,4-oxadiazol-3-yl]benzyl}amino)propyl]phosphonic acid] was tested, and the EC50 was 217 nM.
`O=C(O)CCNCc1ccc(-c2noc(CCCCc3ccccc3)n2)cc1` [3-({4-[5-(4-Phenylbutyl)-1,2,4-oxadiazol-3-yl]benzyl}amino)propanoic acid] gave an EC50 of 606 nM.
In the case of `O=P(O)(O)CCCNCc1ccc(-c2noc(CCCCc3ccccc3)n2)cc1` [Compound 4, [3-({4-[5-(4-Phenylbutyl)-1,2,4-oxadiazol-3-yl]benzyl}amino)propyl]phosphonic acid], the EC50 is reported as 63.1 nM.
